Source: article PMC11784096, “Synthesis, antibacterial evaluation and in silico studies of novel 2-(benzo[d]thiazol-2-yl)-N-arylacetamides and their derivatives as potential DHFR inhibitors” (BMC Chemistry, 2025)
Values after ≈ are worked out from the molar mass of the structure shown.

Assays:
E. coli [1] = assay: Minimum inhibition concentration, serial dilution; assay type: cell-based, Escherichia coli; conditions: 37 °C; for MIC: Escherichia coli
Experimental: (§1) For each strain, three to five isolated colonies were selected from the fresh agar plate and transferred into a tube containing 3-4 ml of the sterile broth medium. The bacterial suspension was mixed well and incubated at 35-37 °C for 2-6 hours. […] After that, 1 mg of the tested compound (antimicrobial agent) was dissolved in 1 ml of DMSO and a two-fold serial dilution was done using a broth medium. A fixed volume of the prepared bacterial inoculum was added to each tube and incubated at 37 °C for 16-20 hours. The MIC is defined as the lowest concentration of the antimicrobial agent that inhibits visible growth of the tested isolate as observed with the unaided eye.

A. baumannii [2] = assay: Minimum inhibition concentration, serial dilution; assay type: cell-based, Acinetobacter baumannii; conditions: 37 °C; for MIC: Acinetobacter baumannii
Experimental: as §1

E. coli [3] = assay: Agar diffusion method, inhibition zone diameter; assay type: cell-based, Escherichia coli; conditions: Gram-negative
Source text: (§2) The bacterial growth inhibition activity of most of the newly synthesized compounds was examined against different Gram-positive and Gram-negative strains. The Agar diffusion method was used to assess the antibacterial and antifungal activity. The Gram-negative strains were: E. coli, K. pneumonia, P. aeruginosa and A. baumannii, the Gram-positive strains were: St. aureus, St. mutans and the standard antibiotics were gentamicin, tigecycline and ampicillin.
(§3) The agar-based media plate surface was inoculated by spreading a volume of the microbial inoculum over the entire agar surface.
(§4) Using a sterile cork borer or a tip, a hole with a diameter of 6 to 8 mm was made.
(§5) Using a micropipette, (20 µL) volume of the antimicrobial agent or extract solution at the desired concentration was introduced into the well.
(§6) The inoculated plates were incubated under suitable conditions depending upon the tested microorganism. The antimicrobial agent diffused through the agar medium and inhibited the growth of the microbial strain tested.
(§7) After a suitable incubation period (16 to 48 hours) according to the optimum growth conditions, the resulting inhibition zone diameters (in mm) around the wells were measured to the nearest whole millimeter at the point at which there is a prominent reduction in growth. If growth is insufficient at the recommended times, the plates should be re-incubated and read later.

K. pneumonia [4] = assay: Minimum inhibition concentration, serial dilution; assay type: cell-based, Klebsiella pneumonia; conditions: 37 °C; for MIC: Klebsiella pneumoniae
Experimental: as §1

A. baumannii [5] = assay: Agar diffusion method, inhibition zone diameter; assay type: cell-based, Acinetobacter baumannii; conditions: Gram-negative
Source text: as §2, §3, §4, §5, §6, §7

P. aeruginosa [6] = assay: Minimum inhibition concentration, serial dilution; assay type: cell-based, Pseudomonas aeruginosa; conditions: 37 °C; for MIC: Pseudomonas aeruginosa
Experimental: as §1

K. pneumonia [7] = assay: Agar diffusion method, inhibition zone diameter; assay type: cell-based, Klebsiella pneumonia; conditions: Gram-negative
Source text: as §2, §3, §4, §5, §6, §7

St. aureus = assay: Agar diffusion method, inhibition zone diameter; assay type: cell-based, Staphylococcus aureus; conditions: Gram-positive
Source text: as §2, §3, §4, §5, §6, §7

P. aeruginosa [8] = assay: Agar diffusion method, inhibition zone diameter; assay type: cell-based, Pseudomonas aeruginosa; conditions: Gram-negative
Source text: as §2, §3, §4, §5, §6, §7

St. mutans = assay: Agar diffusion method, inhibition zone diameter; assay type: cell-based; conditions: Gram-positive
Source text: as §2, §3, §4, §5, §6, §7

4-(2-(Benzo[d]thiazol-2-yl)acetamido)benzoic acid [2e]
MIC E. coli (E. coli [1]): 0.03125 µg/mL
MIC A. baumannii (A. baumannii [2]): 0.125 µg/mL
IZD E. coli (E. coli [3]): 35 ± 1 mm
MIC K. pneumonia (K. pneumonia [4]): 0.03125 µg/mL
IZD A. baumannii (A. baumannii [5]): 36 ± 1 mm
MIC P. aeruginosa (P. aeruginosa [6]): 0.03125 µg/mL
IZD K. pneumonia (K. pneumonia [7]): 36 ± 1 mm
IZD St. aureus (St. aureus): 20 ± 1 mm
IZD P. aeruginosa (P. aeruginosa [8]): 36 ± 1 mm

O=C(Nc1ccccc1)C(=Cc1ccccc1)c1nc2ccccc2s1 [4a, 2-(Benzo[d]thiazol-2-yl)-N,3-diphenylacrylamide]
IZD E. coli (E. coli [3]): 11 ± 1 mm

COc1ccc(C=C(C(=O)Nc2ccccc2)c2nc3ccccc3s2)cc1 [4b, 2-(Benzo[d]thiazol-2-yl)-3-(4-methoxyphenyl)-N-phenylacrylamide]
IZD A. baumannii (A. baumannii [5]): 13 ± 1 mm

O=C(Nc1ccccc1)C(=Cc1ccc(Cl)cc1)c1nc2ccccc2s1 [4d, 2-(Benzo[d]thiazol-2-yl)-3-(4-chlorophenyl)-N-phenylacrylamide]
MIC (E. coli [1]): 0.125 µg/mL (≈ 0.32 µM)
MIC (A. baumannii [2]): 0.25 µg/mL (≈ 0.64 µM)
IZD E. coli (E. coli [3]): 20 ± 1 mm
MIC (K. pneumonia [4]): 0.125 µg/mL (≈ 0.32 µM)
IZD A. baumannii (A. baumannii [5]): 15 ± 1 mm
IZD K. pneumonia (K. pneumonia [7]): 20 ± 1 mm
IZD P. aeruginosa (P. aeruginosa [8]): no activity

COc1ccc(C=C(C(=O)Nc2ccc(C)cc2)c2nc3ccccc3s2)cc1 [4f, 2-(Benzo[d]thiazol-2-yl)-3-(4-methoxyphenyl)-N-(p-tolyl)acrylamide]
MIC (E. coli [1]): 0.0625 µg/mL (≈ 0.156 µM)
IZD E. coli (E. coli [3]): 25 ± 1.1 mm
MIC K. pneumonia (K. pneumonia [4]): 0.0625 µg/mL (≈ 0.156 µM)
MIC (K. pneumonia [4]): 0.0312 µg/mL (≈ 0.078 µM)
IZD A. baumannii (A. baumannii [5]): 15 ± 1.1 mm
MIC (P. aeruginosa [6]): 0.125 µg/mL (≈ 0.312 µM)
IZD K. pneumonia (K. pneumonia [7]): 25 ± 1.1 mm
IZD St. aureus (St. aureus): 25 ± 1.1 mm
IZD P. aeruginosa (P. aeruginosa [8]): 20 ± 1 mm
IZD St. mutans (St. mutans): 18 ± 1.1 mm

COc1ccc(C=C(C(=O)Nc2ccc(C)cc2)c2nc3ccccc3s2)cc1OC [4g, 2-(Benzo[d]thiazol-2-yl)-3-(3,4-dimethoxyphenyl)-N-(p-tolyl)acrylamide]
IZD E. coli (E. coli [3]): 18 ± 1 mm

O=C(Nc1ccc(Cl)cc1)C(=Cc1ccccc1)c1nc2ccccc2s1 [4i, 2-(Benzo[d]thiazol-2-yl)-N-(4-chlorophenyl)-3-phenylacrylamide]
MIC (E. coli [1]): 0.125 µg/mL (≈ 0.32 µM)
IZD E. coli (E. coli [3]): 20 ± 1 mm
MIC (K. pneumonia [4]): 0.125 µg/mL (≈ 0.32 µM)
IZD A. baumannii (A. baumannii [5]): 15 ± 1 mm
IZD K. pneumonia (K. pneumonia [7]): 23 ± 1 mm
IZD St. aureus (St. aureus): 12 ± 1 mm
IZD P. aeruginosa (P. aeruginosa [8]): no activity

O=C(Nc1ccc(Cl)cc1)C(=Cc1ccc(OC(=O)c2ccccc2)cc1)c1nc2ccccc2s1 [4o, 4-(2-(Benzo[d]thiazol-2-yl)-3-((4-chlorophenyl)amino)-3-oxoprop-1-en-1-yl)phenyl-benzoate]
IZD A. baumannii (A. baumannii [5]): 10 ± 1 mm
IZD K. pneumonia (K. pneumonia [7]): 13 ± 1 mm

O=C(Nc1ccccc1)C(=Cc1cn(-c2ccccc2)nc1-c1ccccc1)c1nc2ccccc2s1 [6a, 2-(Benzo[d]thiazol-2-yl)-3-(1,3-diphenyl-1H-pyrazol-4-yl)-N-phenylacrylamide]
MIC (E. coli [1]): 0.0625 µg/mL (≈ 0.125 µM)
IZD E. coli (E. coli [3]): 20 ± 1 mm
MIC (K. pneumonia [4]): 0.0625 µg/mL (≈ 0.125 µM)
MIC (P. aeruginosa [6]): 0.125 µg/mL (≈ 0.251 µM)
IZD K. pneumonia (K. pneumonia [7]): 20 ± 1 mm
IZD P. aeruginosa (P. aeruginosa [8]): 23 ± 1 mm

Cc1ccc(-c2nn(-c3ccccc3)cc2C=C(C(=O)Nc2ccccc2)c2nc3ccccc3s2)cc1 [6b, 2-(Benzo[d]thiazol-2-yl)-N-phenyl-3-(1-phenyl-3-(p-tolyl)-1H-pyrazol-4-yl)acrylamide]
IZD A. baumannii (A. baumannii [5]): 10 ± 1 mm
IZD K. pneumonia (K. pneumonia [7]): 13 ± 1 mm

O=C(Nc1ccccc1)C(=Cc1cn(-c2ccccc2)nc1-c1ccc(Cl)cc1)c1nc2ccccc2s1 [6c, 2-(Benzo[d]thiazol-2-yl)-3-(3-(4-chlorophenyl)-1-phenyl-1H-pyrazol-4-yl)-N-phenyl-acrylamide]
IZD A. baumannii (A. baumannii [5]): 13 ± 1 mm

Cc1ccc(NC(=O)C(=Cc2cn(-c3ccccc3)nc2-c2ccccc2)c2nc3ccccc3s2)cc1 [6d, 2-(Benzo[d]thiazol-2-yl)-3-(1,3-diphenyl-1H-pyrazol-4-yl)-N-(p-tolyl)acrylamide]
IZD A. baumannii (A. baumannii [5]): 10 ± 1 mm
IZD K. pneumonia (K. pneumonia [7]): 13 ± 1 mm

Cc1ccc(NC(=O)C(=Cc2cn(-c3ccccc3)nc2-c2ccc(C)cc2)c2nc3ccccc3s2)cc1 [6e, 2-(Benzo[d]thiazol-2-yl)-3-(1-phenyl-3-(p-tolyl)-1H-pyrazol-4-yl)-N-(p-tolyl)acrylamide]
IZD E. coli (E. coli [3]): 31 ± 1 mm
IZD K. pneumonia (K. pneumonia [7]): 36 ± 0.8 mm
IZD St. aureus (St. aureus): 29 ± 0.5 mm

Cc1ccc(-c2nn(-c3ccccc3)cc2C=C(C(=O)Nc2ccc(Cl)cc2)c2nc3ccccc3s2)cc1 [6h, 2-(Benzo[d]thiazol-2-yl)-N-(4-chlorophenyl)-3-(1-phenyl-3-(p-tolyl)-1H-pyrazol-4-yl)acrylamide]
IZD A. baumannii (A. baumannii [5]): 13 ± 1 mm

O=C(Nc1ccc(Cl)cc1)/C(=C\c1cn(-c2ccccc2)nc1-c1ccc(Cl)cc1)c1nc2ccccc2s1 [6i]
IZD E. coli (E. coli [3]): 18 ± 0.5 mm
IZD A. baumannii (A. baumannii [5]): 19 ± 0.5 mm
IZD St. aureus (St. aureus): 14 ± 1 mm
IZD St. mutans (St. mutans): 15 ± 1 mm

N#Cc1c(-c2ccccc2)c(-c2nc3ccccc3s2)c(=O)n(-c2ccccc2)c1N [11a, 2-Amino-5-(benzo[d]thiazol-2-yl)-6-oxo-1,4-diphenyl-1,6-dihydropyridine-3-carbonitrile]
IZD E. coli (E. coli [3]): 18 ± 0.5 mm
IZD A. baumannii (A. baumannii [5]): 19 ± 0.5 mm
IZD St. aureus (St. aureus): 14 ± 1 mm
IZD St. mutans (St. mutans): 15 ± 1 mm

COc1ccc(-c2c(C#N)c(N)n(-c3ccccc3)c(=O)c2-c2nc3ccccc3s2)cc1 [11b, 2-Amino-5-(benzo[d]thiazol-2-yl)-4-(4-methoxyphenyl)-6-oxo-1-phenyl-1,6-dihydro-pyridine-3-carbonitrile]
IZD E. coli (E. coli [3]): 19 ± 1 mm
IZD A. baumannii (A. baumannii [5]): 15 ± 1 mm

COc1ccc(-c2c(C#N)c(N)n(-c3ccc(C)cc3)c(=O)c2-c2nc3ccccc3s2)cc1 [11d, 2-Amino-5-(benzo[d]thiazol-2-yl)-4-(4-methoxyphenyl)-6-oxo-1-(p-tolyl)-1,6-dihydro-pyridine-3-carbonitrile]
MIC (E. coli [1]): 0.0315 µg/mL (≈ 0.0678 µM)
IZD E. coli (E. coli [3]): 35 ± 1 mm
MIC (K. pneumonia [4]): 0.0625 µg/mL (≈ 0.135 µM)
IZD A. baumannii (A. baumannii [5]): 10 ± 1 mm
IZD K. pneumonia (K. pneumonia [7]): 23 ± 1 mm
IZD P. aeruginosa (P. aeruginosa [8]): 13 ± 1 mm

COc1ccc(-c2c(C#N)c(N)n(-c3ccc(Cl)cc3)c(=O)c2-c2nc3ccccc3s2)cc1 [11f, 2-Amino-5-(benzo[d]thiazol-2-yl)-1-(4-chlorophenyl)-4-(4-methoxyphenyl)-6-oxo-1,6-dihydropyridine-3-carbonitrile]
IZD E. coli (E. coli [3]): 17 ± 1.1 mm
IZD A. baumannii (A. baumannii [5]): 15 ± 1.1 mm
IZD K. pneumonia (K. pneumonia [7]): 20 ± 1.1 mm
IZD St. aureus (St. aureus): 20 ± 1.1 mm
IZD P. aeruginosa (P. aeruginosa [8]): 16 ± 1 mm
IZD St. mutans (St. mutans): 20 ± 1.1 mm

CNC(C)C1CCC(N)C(OC2C(N)CC(N)C(OC3OCC(C)(O)C(NC)C3O)C2O)O1 (stereo not drawn) [Gentamicin, reference compound]
MIC (E. coli [1]): 0.0312 µg/mL (≈ 0.0654 µM)
MIC (A. baumannii [2]): 0.0312 µg/mL (≈ 0.0654 µM)
IZD E. coli (E. coli [3]): 27 ± 0.1 mm
MIC (K. pneumonia [4]): 0.0625 µg/mL (≈ 0.131 µM)
MIC (P. aeruginosa [6]): 0.0312 µg/mL (≈ 0.0654 µM)
IZD K. pneumonia (K. pneumonia [7]): 29 ± 0.5 mm
IZD P. aeruginosa (P. aeruginosa [8]): 32 ± 0.4 mm

CN(C)c1cc(NC(=O)CNC(C)(C)C)c(O)c2c1C[C@H]1C[C@H]3[C@H](N(C)C)C(O)=C(C(N)=O)C(=O)[C@@]3(O)C(O)=C1C2=O [Tigecycline, reference compound]
MIC (A. baumannii [2]): 0.0312 µg/mL (≈ 0.0534 µM)
IZD A. baumannii (A. baumannii [5]): 23 ± 0.4 mm
